For the data set the following is noted: Liquid, Closed cell (Static) method.

2 compounds from the NIST ThermoML archive (doi:10.1016/j.jct.2017.01.019) can be followed below.

Numbers after ± are expanded uncertainties.

Turning to `FCC(F)(F)F` [1,1,1,2-tetrafluoroethane], the vapor or sublimation pressure (in general, the pressure of vapour in equilibrium with the condensed phase) (243.15 K) came to 84.5 ± 1.6 kPa; the “vapor or sublimation pressure” value (248.15 K) was determined as 106.4 ± 1.6 kPa; the “vapor or sublimation pressure” value (253.15 K) is 132.7 ± 1.6 kPa; the “vapor or sublimation pressure” value (258.15 K) is 163.9 ± 1.6 kPa; the “vapor or sublimation pressure” value (263.15 K) is reported as 200.6 ± 1.6 kPa; the “vapor or sublimation pressure” value (268.15 K) came to 243.3 ± 1.6 kPa. The “vapor or sublimation pressure” value is, setting by setting: (273.15 K) 292.7 ± 1.7 kPa; (278.15 K) 349.6 ± 1.7 kPa; (283.15 K) 414.3 ± 1.7 kPa; (288.15 K) 488.2 ± 1.8 kPa; (293.15 K) 570.7 ± 1.8 kPa.
Take `N` [ammonia]: the “vapor or sublimation pressure” value is reported as 119.7 ± 1.6 kPa (243.15 K); 151.7 ± 1.6 kPa (248.15 K); 190.2 ± 1.6 kPa (253.15 K); 236.4 ± 1.6 kPa (258.15 K); 290.7 ± 1.7 kPa (263.15 K); 354.8 ± 1.7 kPa (268.15 K). The “vapor or sublimation pressure” value runs as follows: (273.15 K) 429.3 ± 1.7 kPa; (278.15 K) 515.5 ± 1.8 kPa; (283.15 K) 615.1 ± 1.8 kPa; (288.15 K) 728.5 ± 1.9 kPa; (293.15 K) 857.1 ± 2 kPa.
